This is an account of results in PubChem BioAssay (NCI).

Among the test systems are TK-10 renal; MDA-MB-435; UACC-62 melanoma; LOX IMVI melanoma; A549 NSCLC; PC-3 prostate; OVCAR-3 ovarian; KM12 colon; SN12C renal; SK-MEL-5 melanoma.
Experiment in all cases: inhibition of tumour cell growth, NCI panel, 48 h

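Grown in 96-well plates, cells were treated for 48 hours with each compound at five concentrations. Insufficient inhibition: endpoint recorded as highest concentration tested. GI50 = concentration required for 50% inhibition of growth. TGI marks complete inhibition of growth.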

Turning to `Cc1cc(=O)[nH]o1`, the TGI with TK-10 renal, in the experiment with MDA-MB-435, in the experiment on UACC-62 melanoma, in the experiment with LOX IMVI melanoma, with A549 NSCLC and in the experiment with PC-3 prostate was above 100 µM throughout. The same compound displayed a TGI in the experiment on OVCAR-3 ovarian above 100 µM.

In the case of `O=C(Nc1ccc(CN2CCOCC2)cc1)c1[nH]ncc1Nc1ncnc2sccc12`, the GI50 in the experiment with TK-10 renal is 1.64 µM; in the experiment on KM12 colon, 0.311 µM; in the experiment on MDA-MB-435, 0.525 µM; with UACC-62 melanoma it was 0.707 µM; in the experiment with A549 NSCLC, 0.306 µM; with SN12C renal, 0.39 µM. The GI50 in the experiment on PC-3 prostate is 0.494 µM; with SK-MEL-5 melanoma, 0.223 µM; in the experiment with OVCAR-3 ovarian, 0.29 µM. Moreover, the TGI with TK-10 renal is above 100 µM; in the experiment with KM12 colon it was 10.1 µM; in the experiment with MDA-MB-435, 11.7 µM; in the experiment on UACC-62 melanoma, 5.7 µM; with A549 NSCLC, 13.8 µM; in the experiment with SN12C renal, above 100 µM. The TGI in the experiment on PC-3 prostate was above 100 µM; in the experiment on SK-MEL-5 melanoma it was 0.638 µM; in the experiment with OVCAR-3 ovarian, 2.81 µM.

`O=C(Nc1cccc(Oc2nnc(Cl)c3ccccc23)c1)Nc1ccc(Cl)c(C(F)(F)F)c1`: the GI50 is 2.32 µM with TK-10 renal; 0.701 µM with KM12 colon; 0.791 µM in the experiment on MDA-MB-435; 0.68 µM in the experiment on LOX IMVI melanoma; 1.1 µM with A549 NSCLC; 0.941 µM with SN12C renal. Further, the GI50 with PC-3 prostate is 0.545 µM; in the experiment on SK-MEL-5 melanoma, 0.985 µM; in the experiment on OVCAR-3 ovarian, 0.773 µM. Also, the TGI in the experiment with TK-10 renal was found to be 6.55 µM; in the experiment on KM12 colon, 2.97 µM; with MDA-MB-435, 3.24 µM; with LOX IMVI melanoma, 2.82 µM; with A549 NSCLC it was 8.3 µM; with SN12C renal it was 3.85 µM. The TGI in the experiment on PC-3 prostate came out at 2.51 µM; in the experiment on SK-MEL-5 melanoma, 3.25 µM; in the experiment on OVCAR-3 ovarian it was 4.46 µM.

As to `CN(C)CCNC(=O)Cn1cc([N+](=O)[O-])c(=O)c2ccccc21`, the TGI in the experiment with TK-10 renal, in the experiment with KM12 colon, in the experiment with MDA-MB-435, in the experiment with UACC-62 melanoma, in the experiment on A549 NSCLC and with SN12C renal was above 100 µM each time. Besides, the TGI in the experiment on PC-3 prostate, in the experiment with SK-MEL-5 melanoma and with OVCAR-3 ovarian was above 100 µM each time.

For `OCC1OC(OCC(O)C(O)C(O)C(/C=N/Nc2ccccc2)=N/Nc2ccccc2)C(O)C(O)C1O` (stereo not drawn), the TGI in the experiment on TK-10 renal, with KM12 colon, in the experiment on MDA-MB-435, in the experiment on LOX IMVI melanoma, in the experiment on A549 NSCLC and in the experiment on SN12C renal was above 100 µM each time. The TGI with PC-3 prostate, with SK-MEL-5 melanoma and in the experiment with OVCAR-3 ovarian was above 100 µM each time.

With `COc1ccc2nc3cc(Cl)ccc3c(N3CCN(c4ccnc(N5CCOCC5)n4)CC3)c2c1`, the GI50 in the experiment on TK-10 renal is 42.5 µM; with KM12 colon, 19.3 µM; in the experiment on MDA-MB-435, 7.15 µM; in the experiment with UACC-62 melanoma, above 100 µM; in the experiment with A549 NSCLC, above 100 µM; in the experiment on SN12C renal, above 100 µM. Besides, the GI50 in the experiment with PC-3 prostate is 98.1 µM; in the experiment with SK-MEL-5 melanoma it was above 100 µM; with OVCAR-3 ovarian, 4.14 µM. Moreover, the TGI with TK-10 renal, with KM12 colon, in the experiment with MDA-MB-435, in the experiment on UACC-62 melanoma, in the experiment with A549 NSCLC and in the experiment with SN12C renal was above 100 µM each time. Further, the TGI in the experiment on PC-3 prostate was above 100 µM; in the experiment with SK-MEL-5 melanoma, above 100 µM; in the experiment on OVCAR-3 ovarian it was 57.3 µM.

Consider `O=c1c2ccccc2n2n1CC(O)C2` (stereo not drawn), for which the TGI in the experiment with TK-10 renal, with KM12 colon, with MDA-MB-435, with LOX IMVI melanoma, with A549 NSCLC and in the experiment on SN12C renal was above 100 µM in each case. The TGI in the experiment with PC-3 prostate, in the experiment on SK-MEL-5 melanoma and in the experiment on OVCAR-3 ovarian was above 100 µM throughout. In addition, the GI50 in the experiment with MDA-MB-435 and in the experiment with PC-3 prostate was above 100 µM in each case.

Take `O=C(CN1CCN(c2ccc(Cl)cc2)CC1)N1CCN(c2nnc(-c3ccc(Cl)cc3)c(-c3ccc(Cl)cc3)n2)CC1`: the GI50 with TK-10 renal is 26.2 µM; in the experiment with KM12 colon, 9.45 µM; in the experiment on MDA-MB-435, 50.9 µM; in the experiment with LOX IMVI melanoma, 14.5 µM; in the experiment with A549 NSCLC, above 100 µM; in the experiment on SN12C renal, 37 µM. Also, the figures for the GI50 in the experiment with PC-3 prostate, in the experiment on SK-MEL-5 melanoma and in the experiment on OVCAR-3 ovarian were 57.5 µM, 14.6 µM and 48.3 µM, respectively. In addition, the TGI in the experiment on TK-10 renal is above 100 µM; in the experiment on KM12 colon, above 100 µM; with MDA-MB-435 it was above 100 µM; with LOX IMVI melanoma, 76.4 µM; in the experiment with A549 NSCLC, above 100 µM; in the experiment on SN12C renal, above 100 µM. For the same compound, the TGI with PC-3 prostate, in the experiment with SK-MEL-5 melanoma and with OVCAR-3 ovarian was above 100 µM in each case.
